# Test results reported in US9643953B2, “Substituted benzylpyrazoles” (Bayer Intellectual Property GmbH, priority 2011, dated 2017).
# Where two headings read alike, the source gives them in different places.
# How the values were obtained:
# [1] = target: T1, catalytic domain of human Bub1 (amino acids 704-1085) (Homo sapiens, UniProt O43683); experiment: Bub1 kinase assay (TR-FRET); assay type: biochemical; details: ATP 10 μM, peptide substrate 1 μM, 60 min at 22° C.
# T1 construct: catalytic domain of human Bub1 (amino acids 704-1085); His6 (N); made in house; host or cells: Hi5 insect cells
# T1 sequence (O43683 704-1085): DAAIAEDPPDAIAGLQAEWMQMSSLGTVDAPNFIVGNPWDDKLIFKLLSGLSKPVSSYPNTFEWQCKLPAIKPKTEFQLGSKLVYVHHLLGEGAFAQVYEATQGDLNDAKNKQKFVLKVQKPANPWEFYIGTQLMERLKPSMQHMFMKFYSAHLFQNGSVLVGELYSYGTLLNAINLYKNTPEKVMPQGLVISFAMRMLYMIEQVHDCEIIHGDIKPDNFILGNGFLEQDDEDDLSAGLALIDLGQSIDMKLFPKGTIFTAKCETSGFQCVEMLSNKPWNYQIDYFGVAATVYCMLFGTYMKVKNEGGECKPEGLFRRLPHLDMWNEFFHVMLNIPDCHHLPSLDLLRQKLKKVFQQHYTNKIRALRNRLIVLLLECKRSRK
# Protocol: To this end, 100-fold concentrated compound solutions (in DMSO) were previously prepared by serial dilution (1:3.4) of 2 mM stocks in a clear low volume 384-well source microtiter plate (Greiner Bio-One, Frickenhausen, Germany), from which 50 nl of compounds were transferred into a black low volume test microtiter plate from the same supplier. […] The resulting mixture (5 μl final volume) was incubated at 22° C. during 60 min., and the reaction was stopped by the addition of 5 μl of an aqueous EDTA-solution (50 mM EDTA, in 100 mM HEPES pH 7.5 and 0.2% (w/v) bovine serum albumin) which also contained the TR-FRET detection reagents (0.2 μM streptavidin-XL665 [Cisbio Bioassays, Codolet, France] and 1 nM anti-phosho-Serine antibody [Merck Millipore, cat. #35-001] and 0.4 nM LANCE EU-W1024 labeled anti-mouse IgG antibody [Perkin-Elmer, product no. AD0077, alternatively a Terbium-cryptate-labeled anti-mouse IgG antibody from Cisbio Bioassays can be used]). The stopped reaction mixture was further incubated 1 h at 22° C. in order to allow the formation of complexes between peptides and detection reagents. Subsequently, the amount of product was evaluated by measurement of the resonance energy transfer from the Eu-chelate-antibody complex recognizing the Phosphoserine residue to the streptavidin-XL665 bound to the biotin moiety of the peptide. […] IC50 values were calculated by fitting the normalized inhibition data to a 4-parameter logistic equation (Minimum, Maximum, IC50, Hill; Y=Max+(Min−Max)/(1+(X/IC50)Hill)).
# HeLa cell line = experiment: Proliferation assay (HeLa cell line);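 further: crystal violet staining of cell number, absorbance read at 595 nm, compounds tested at 0.001–10 µM, zero-point plate taken as 0% and untreated cells as 100%, four-parameter fit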
# Protocol: Cultivated tumor cells (cells were ordered from ATCC, except HeLa-MaTu and HeLa-MaTu-ADR, which were ordered from EPO-GmbH, Berlin) were plated at a density of 1000 to 5000 cells/well, depending on the growth rate of the respective cell line, in a 96-well multititer plate in 200 μL of their respective growth medium supplemented 10% fetal calf serum. After 24 hours, the cells of one plate (zero-point plate) were stained with crystal violet (see below), while the medium of the other plates was replaced by fresh culture medium (200 μl), to which the test substances were added in various concentrations (0 μM, as well as in the range of 0.001-10 μM; the final concentration of the solvent dimethyl sulfoxide was 0.5%). The cells were incubated for 4 days in the presence of test substances. Cell proliferation was determined by staining the cells with crystal violet: the cells were fixed by adding 20 μl/measuring point of an 11% glutaric aldehyde solution for 15 minutes at room temperature. After three washing cycles of the fixed cells with water, the plates were dried at room temperature. The cells were stained by adding 100 μl/measuring point of a 0.1% crystal violet solution (pH 3.0). After three washing cycles of the stained cells with water, the plates were dried at room temperature. The dye was dissolved by adding 100 μl/measuring point of a 10% acetic acid solution. Absorption was determined by photometry at a wavelength of 595 nm. The change of cell number, in percent, was calculated by normalization of the measured values to the absorption values of the zero-point plate (=0%) and the absorption of the untreated (0 μm) cells (=100%). The IC50 values were determined by means of a 4 parameter fit.
# [2] = TR-FRET, read-out: Biological Assay 1: Bub1 kinase assay median IC50
# [3] = Homo sapiens, HeLa, 96 h, read-out: Biological Assay 2: Proliferation assay (HeLa cell line) median IC50, HeLa cells, 4 days incubation, crystal violet staining
# [4] = Biological Assay 1: Bub1 kinase assay median IC50, TR-FRET
# [5] = Homo sapiens, HeLa, 96 h, read-out: Biological Assay 2: Proliferation assay (HeLa cell line) median IC50
Structure (SMILES),"IC50 [1, 2] [nM]",IC50 (HeLa cell line; [5]) [nM],further results
"CCOc1cc(F)c(Cn2nc(-c3ncc(OCC[S+](C)[O-])c(Nc4ccncc4)n3)c(C)c2C2CC2)c(F)c1 (racemic) [Example 2-8-1, 2-[5-cyclopropyl-1-(4-ethoxy-2,6-difluorobenzyl)-4-methyl-1H-pyrazol-3-yl]-5-[2-(methylsulfinyl)ethoxy]-N-(pyridin-4-yl)pyrimidin-4-amine]",4.19,–,IC50 (HeLa cell line; [3]): 3930 nM
"CCOc1cc(F)c(Cn2nc(-c3ncc(OCC4CCC(=O)N4)c(Nc4ccncc4)n3)c(C)c2C2CC2)c(F)c1 (single isomer, unassigned; enantiomer 1) [Example 2-3-6, 5-[({2-[5-cyclopropyl-1-(4-ethoxy-2,6-difluorobenzyl)-4-methyl-1H-pyrazol-3-yl]-4-(pyridin-4-ylamino)pyrimidin-5-yl}oxy)methyl]pyrrolidin-2-one enantiomer 1]",8.14,–,IC50 (HeLa cell line; [3]): 2970 nM
"CCOc1cc(F)c(Cn2nc(-c3ncc(OCC[S+](C)[O-])c(Nc4ccncc4)n3)c(C)c2C2CC2)c(F)c1 (single isomer, unassigned; enantiomer 1) [Example 2-8-2, 2-[5-cyclopropyl-1-(4-ethoxy-2,6-difluorobenzyl)-4-methyl-1H-pyrazol-3-yl]-5-[2-(methylsulfinyl)ethoxy]-N-(pyridin-4-yl)pyrimidin-4-amine enantiomer 1]",3.96,–,–
"CCOc1cc(F)c(Cn2nc(-c3ncc(OCC4CCC(=O)N4)c(Nc4ccncc4)n3)c(C)c2C2CC2)c(F)c1 (single isomer, unassigned; enantiomer 2) [Example 2-3-7, 5-[({2-[5-cyclopropyl-1-(4-ethoxy-2,6-difluorobenzyl)-4-methyl-1H-pyrazol-3-yl]-4-(pyridin-4-ylamino)pyrimidin-5-yl}oxy)methyl]pyrrolidin-2-one enantiomer 2]",12.1,–,"IC50 (HeLa cell line; read-out: Biological Assay 2: Proliferation assay (HeLa cell line) median IC50, HeLa cells, 4 days incubation, crystal violet staining): 2890 nM"
"CCOc1cc(F)c(Cn2nc(-c3ncc(OCC[S+](C)[O-])c(Nc4ccncc4)n3)c(C)c2C2CC2)c(F)c1 (single isomer, unassigned; enantiomer 2) [Example 2-8-3, 2-[5-cyclopropyl-1-(4-ethoxy-2,6-difluorobenzyl)-4-methyl-1H-pyrazol-3-yl]-5-[2-(methylsulfinyl)ethoxy]-N-(pyridin-4-yl)pyrimidin-4-amine enantiomer 2]",6.17,–,–
"CCOc1cc(F)c(Cn2nc(-c3ncc(OC)c(Nc4ccncc4)n3)c(C)c2OC)c(F)c1 [Example 2-1-1, 2-[1-(4-ethoxy-2,6-difluorobenzyl)-5-methoxy-4-methyl-1H-pyrazol-3-yl]-5-methoxy-N-(pyridin-4-yl)pyrimidin-4-amine]",–,7380,"IC50 [1, 4]: 6.14 nM"
"COc1cnc(-c2cc(N(C)C)n(Cc3ccccc3F)n2)nc1Nc1ccncc1 [Example 2-1-2, 2-[5-(dimethylamino)-1-(2-fluorobenzyl)-1H-pyrazol-3-yl]-5-methoxy-N-(pyridin-4-yl)pyrimidin-4-amine]",1150,> 10000,–
"COc1cnc(-c2cc(OC)n(Cc3ccccc3F)n2)nc1Nc1ccncc1 [Example 2-1-3, 2-[1-(2-fluorobenzyl)-5-methoxy-1H-pyrazol-3-yl]-5-methoxy-N-(pyridin-4-yl)pyrimidin-4-amine]",381,> 10000,–
"CCOc1cc(-c2ncc(OC)c(Nc3ccncc3)n2)nn1Cc1ccccc1F [Example 2-1-4, 2-[5-ethoxy-1-(2-fluorobenzyl)-1H-pyrazol-3-yl]-5-methoxy-N-(pyridin-4-yl)pyrimidin-4-amine]",638,> 10000,–
"COc1cnc(-c2cc(C3CC3)n(Cc3ccccc3)n2)nc1Nc1ccncc1 [Example 2-1-5, 2-(1-benzyl-5-cyclopropyl-1H-pyrazol-3-yl)-5-methoxy-N-(pyridin-4-yl)pyrimidin-4-amine]",516,> 10000,–
"C=Cc1cc(-c2ncc(OC)c(Nc3ccncc3)n2)nn1Cc1ccccc1 [Example 2-1-6, 2-(1-benzyl-5-ethenyl-1H-pyrazol-3-yl)-5-methoxy-N-(pyridin-4-yl)pyrimidin-4-amine]",517,> 10000,–
"COc1cnc(-c2cc(OC)n(Cc3ccccc3F)n2)nc1Nc1ccncc1C#N [Example 2-1-7, 4-({2-[1-(2-fluorobenzyl)-5-methoxy-1H-pyrazol-3-yl]-5-methoxypyrimidin-4-yl}amino)pyridine-3-carbonitrile]",1420,> 10000,–
"CCOc1cc(F)c(Cn2nc(-c3ncc(O)c(Nc4ccncc4)n3)c(C)c2C2CC2)c(F)c1 [Example 2-2-1, 2-[5-cyclopropyl-1-(4-ethoxy-2,6-difluorobenzyl)-4-methyl-1H-pyrazol-3-yl]-4-(pyridin-4-ylamino)pyrimidin-5-ol]",–,–,"IC50 [1, 4]: 6.2 nM"
"COc1ccc(Cn2nc(-c3ncc(OC)c(Nc4ccncc4)n3)c(C)c2C2CC2)cc1 [Example 2-6-1, 2-[5-cyclopropyl-1-(4-methoxybenzyl)-4-methyl-1H-pyrazol-3-yl]-5-methoxy-N-(pyridin-4-yl)pyrimidin-4-amine]",15.1,–,–
"CCOc1cc(F)c(Cn2nc(-c3ncc(OC)c(Nc4ccncc4)n3)c(C)c2N(C)C)c(F)c1 [Example 2-6-2, 2-[5-(dimethylamino)-1-(4-ethoxy-2,6-difluorobenzyl)-4-methyl-1H-pyrazol-3-yl]-5-methoxy-N-(pyridin-4-yl)pyrimidin-4-amine]",–,–,"IC50 [1, 4]: 12.6 nM"
"CCOc1cc(F)c(Cn2nc(-c3ncc(C#N)c(Nc4ccncc4)n3)c(C)c2C2CC2)c(F)c1 [Example 2-6-3, 2-[5-cyclopropyl-1-(4-ethoxy-2,6-difluorobenzyl)-4-methyl-1H-pyrazol-3-yl]-4-(pyridin-4-ylamino)pyrimidine-5-carbonitrile]",–,9350,–
"CCOc1cc(F)c(Cn2nc(-c3ncc(OC)c(Nc4ccncc4C#N)n3)c(C)c2C2CC2)c(F)c1 [Example 2-6-4, 4-({2-[5-cyclopropyl-1-(4-ethoxy-2,6-difluorobenzyl)-4-methyl-1H-pyrazol-3-yl]-5-methoxypyrimidin-4-yl}amino)nicotinonitrile]",–,–,"IC50 [1, 4]: 48.6 nM"
"CCOC(=O)c1cnccc1Nc1nc(-c2nn(Cc3c(F)cc(OCC)cc3F)c(C3CC3)c2C)ncc1OC [Example 2-6-5, ethyl 4-({2-[5-cyclopropyl-1-(4-ethoxy-2,6-difluorobenzyl)-4-methyl-1H-pyrazol-3-yl]-5-methoxypyrimidin-4-yl}amino)nicotinate]",–,–,"IC50 [1, 4]: 27.4 nM"
"COc1cnc(-c2nn(Cc3c(F)cc(C4CC4)cc3F)c(C3CC3)c2C)nc1Nc1ccncc1 [Example 2-7-1, 2-[5-cyclopropyl-1-(4-cyclopropyl-2,6-difluorobenzyl)-4-methyl-1H-pyrazol-3-yl]-5-methoxy-N-(pyridin-4-yl)pyrimidin-4-amine]",8.62,–,–
"COc1cnc(-c2nn(Cc3c(F)cc(OC(F)F)cc3F)c(C3CC3)c2C)nc1Nc1ccncc1 [Example 2-10-1, 2-{5-cyclopropyl-1-[4-(difluoromethoxy)-2,6-difluorobenzyl]-4-methyl-1H-pyrazol-3-yl}-5-methoxy-N-(pyridin-4-yl)pyrimidin-4-amine]",6.79,–,–
"CCOc1cc(F)c(Cn2nc(-c3ncc(OC)c(Nc4ccncc4C(=O)O)n3)c(C)c2C2CC2)c(F)c1 [Example 2-11-1, 4-({2-[5-cyclopropyl-1-(4-ethoxy-2,6-difluorobenzyl)-4-methyl-1H-pyrazol-3-yl]-5-methoxypyrimidin-4-yl}amino)nicotinic acid]",–,–,"IC50 [1, 4]: 26.8 nM"
